The OligoGym collection
HELM strings list units from the 5' end as sugar, base in round brackets, then linkage (d deoxyribose, r ribose, m 2'-O-methyl, p phosphodiester). Strings are as the collection lists them; they lack the last nucleoside at the 3' end of the tested compound. [moe] = 2'-O-(2-methoxyethyl) (MOE); [sp] = phosphorothioate linkage; [m5C] = 5-methylcytosine

These substances were tested against SCN2A (assay: mouse, dose not given). Details: ASO.

Q: How did the 3 h FOB score turn out when “RNA1{[moe]([m5C])[sp].[moe](A)p.[moe]([m5C])p.[moe](G)p.[moe]([m5C])p.[moe](T)p.d(T)[sp].d(A)[sp].d([m5C])[sp].d(A)[sp].d(T)[sp].d([m5C])[sp].d(A)[sp].d(A)[sp].d(A)[sp].d([m5C])[sp].[moe](A)p.[moe](T)[sp].[moe]([m5C])}$$$$ (last 3' nucleoside missing)” was run?
A: 0 score 0-7

Q: With “RNA1{[moe]([m5C])[sp].[moe](A)p.[moe]([m5C])p.[moe](G)p.[moe]([m5C])p.d(T)[sp].d(T)[sp].d(A)[sp].d([m5C])[sp].d(A)[sp].d(T)[sp].d([m5C])[sp].d(A)[sp].d(A)[sp].d(A)[sp].[moe]([m5C])p.[moe](A)p.[moe](T)[sp].[moe]([m5C])}$$$$ (last 3' nucleoside missing)” as the substance, how does the 3 h FOB score read?
A: 0 score 0-7

Q: “RNA1{[moe]([m5C])[sp].[moe](A)p.[moe]([m5C])p.[moe](G)p.d(A)[sp].d([m5C])[sp].d(A)[sp].d(T)[sp].d(A)[sp].d(T)[sp].d(T)[sp].d(T)[sp].d(T)[sp].d(T)[sp].[moe]([m5C])p.[moe](T)p.[moe](A)p.[moe]([m5C])[sp].[moe](A)}$$$$ (last 3' nucleoside missing)” was tested. Which 3 h FOB score did it give?
A: 0 score 0-7

Q: Which 3 h FOB score does the source give for “RNA1{[moe]([m5C])[sp].[moe](A)p.[moe]([m5C])p.[moe](G)p.d([m5C])[sp].d(T)[sp].d(T)[sp].d(A)[sp].d([m5C])[sp].d(A)[sp].d(T)[sp].d([m5C])[sp].d(A)[sp].d(A)[sp].[moe](A)p.[moe]([m5C])p.[moe](A)p.[moe](T)[sp].[moe]([m5C])}$$$$ (last 3' nucleoside missing)” here?
A: 0 score 0-7

Q: “RNA1{[moe]([m5C])[sp].[moe](G)p.[moe](A)p.[moe](A)p.[moe](T)p.[moe](T)p.d([m5C])[sp].d(T)[sp].d(A)[sp].d(T)[sp].d(T)[sp].d(T)[sp].d(T)[sp].d(A)[sp].d(T)[sp].d(A)[sp].[moe](A)p.[moe](A)[sp].[moe](T)}$$$$ (last 3' nucleoside missing)” was tested. Which 3 h FOB score did it give?
A: 2.33 score 0-7

Q: With “RNA1{[moe]([m5C])[sp].[moe](G)p.[moe](A)p.[moe](A)p.[moe](T)p.d(T)[sp].d([m5C])[sp].d(T)[sp].d(A)[sp].d(T)[sp].d(T)[sp].d(T)[sp].d(T)[sp].d(A)[sp].d(T)[sp].[moe](A)p.[moe](A)p.[moe](A)[sp].[moe](T)}$$$$ (last 3' nucleoside missing)” as the substance, how does the 3 h FOB score read?
A: 1.67 score 0-7

Q: For “RNA1{[moe]([m5C])[sp].[moe](G)p.[moe](A)p.[moe](A)p.d(T)[sp].d(T)[sp].d([m5C])[sp].d(T)[sp].d(A)[sp].d(T)[sp].d(T)[sp].d(T)[sp].d(T)[sp].d(A)[sp].[moe](T)p.[moe](A)p.[moe](A)p.[moe](A)[sp].[moe](T)}$$$$ (last 3' nucleoside missing)”, which 3 h FOB score is on record?
A: 1 score 0-7

Q: “RNA1{[moe]([m5C])[sp].[moe](G)p.[moe](T)p.[moe]([m5C])p.[moe](T)p.d([m5C])[sp].d(T)[sp].d(T)[sp].d(T)[sp].d([m5C])[sp].d(T)[sp].d(T)[sp].d(A)[sp].d(T)[sp].d(T)[sp].[moe](T)p.[moe]([m5C])p.[moe](T)[sp].[moe](G)}$$$$ (last 3' nucleoside missing)” was tested. Which 3 h FOB score did it give?
A: 1 score 0-7

Q: How did the 3 h FOB score turn out when “RNA1{[moe]([m5C])[sp].[moe](G)p.[moe](T)p.[moe]([m5C])p.d(T)[sp].d([m5C])[sp].d(T)[sp].d(T)[sp].d(T)[sp].d([m5C])[sp].d(T)[sp].d(T)[sp].d(A)[sp].d(T)[sp].[moe](T)p.[moe](T)p.[moe]([m5C])p.[moe](T)[sp].[moe](G)}$$$$ (last 3' nucleoside missing)” was run?
A: 1 score 0-7

Q: Which 3 h FOB score does the source give for “RNA1{[moe]([m5C])[sp].[moe](T)p.[moe](A)p.[moe](T)[sp].d(T)[sp].d(T)[sp].d(T)[sp].d(A)[sp].d(T)[sp].d(A)[sp].d(A)[sp].d(A)[sp].[moe](T)p.[moe](G)p.[moe]([m5C])p.[moe]([m5C])[sp].[moe](G)}$$$$ (last 3' nucleoside missing)” here?
A: 0 score 0-7

Q: Which 3 h FOB score does the source give for “RNA1{[moe]([m5C])[sp].[moe](T)p.[moe](A)p.[moe](T)p.[moe](T)[sp].d(T)[sp].d(T)[sp].d(A)[sp].d(T)[sp].d(A)[sp].d(A)[sp].d(A)[sp].d(T)[sp].[moe](G)p.[moe]([m5C])p.[moe]([m5C])[sp].[moe](G)}$$$$ (last 3' nucleoside missing)” here?
A: 0 score 0-7

Q: Which 3 h FOB score does the source give for “RNA1{[moe]([m5C])[sp].[moe](T)p.[moe](G)p.[moe](G)p.[moe](A)p.d([m5C])[sp].d([m5C])[sp].d(G)[sp].d(T)[sp].d([m5C])[sp].d(T)[sp].d([m5C])[sp].d(T)[sp].d(T)[sp].d(T)[sp].[moe]([m5C])p.[moe](T)p.[moe](T)[sp].[moe](A)}$$$$ (last 3' nucleoside missing)” here?
A: 1 score 0-7

Q: How did the 3 h FOB score turn out when “RNA1{[moe]([m5C])[sp].[moe](T)p.[moe](G)p.[moe](G)p.[moe]([m5C])p.d(T)[sp].d(A)[sp].d(T)[sp].d(A)[sp].d([m5C])[sp].d(T)[sp].d([m5C])[sp].d(A)[sp].d(T)[sp].d(T)[sp].[moe](G)p.[moe]([m5C])p.[moe](T)[sp].[moe]([m5C])}$$$$ (last 3' nucleoside missing)” was run?
A: 0.67 score 0-7

Q: Which 3 h FOB score does the source give for “RNA1{[moe]([m5C])[sp].[moe](T)p.[moe](G)p.[moe](G)p.d(A)[sp].d([m5C])[sp].d([m5C])[sp].d(G)[sp].d(T)[sp].d([m5C])[sp].d(T)[sp].d([m5C])[sp].d(T)[sp].d(T)[sp].[moe](T)p.[moe]([m5C])p.[moe](T)p.[moe](T)[sp].[moe](A)}$$$$ (last 3' nucleoside missing)” here?
A: 1 score 0-7

Q: “RNA1{[moe]([m5C])[sp].[moe](T)p.[moe](G)p.[moe](T)p.[moe](T)p.d(T)[sp].d(G)[sp].d(G)[sp].d(G)[sp].d(T)[sp].d([m5C])[sp].d(T)[sp].d([m5C])[sp].d(T)[sp].d(T)[sp].[moe](A)p.[moe](G)p.[moe]([m5C])[sp].[moe](T)}$$$$ (last 3' nucleoside missing)” was tested. Which 3 h FOB score did it give?
A: 2.67 score 0-7

Q: With “RNA1{[moe]([m5C])[sp].[moe](T)p.[moe](G)p.[moe]([m5C])[sp].d(A)[sp].d(T)[sp].d(G)[sp].d(T)[sp].d(A)[sp].d(A)[sp].d([m5C])[sp].d([m5C])[sp].[moe](T)p.[moe](T)p.[moe](T)p.[moe](A)[sp].[moe](T)}$$$$ (last 3' nucleoside missing)” as the substance, how does the 3 h FOB score read?
A: 1 score 0-7

Q: How did the 3 h FOB score turn out when “RNA1{[moe]([m5C])[sp].[moe](T)p.[moe](G)p.[moe]([m5C])p.[moe](A)[sp].d(T)[sp].d(G)[sp].d(T)[sp].d(A)[sp].d(A)[sp].d([m5C])[sp].d([m5C])[sp].d(T)[sp].[moe](T)p.[moe](T)p.[moe](A)[sp].[moe](T)}$$$$ (last 3' nucleoside missing)” was run?
A: 0.5 score 0-7

Q: With “RNA1{[moe]([m5C])[sp].[moe](T)p.[moe](G)p.[moe]([m5C])p.[moe](A)p.[moe](T)[sp].d(G)[sp].d(T)[sp].d(A)[sp].d(A)[sp].d([m5C])[sp].d([m5C])[sp].d(T)[sp].d(T)[sp].[moe](T)p.[moe](A)[sp].[moe](T)}$$$$ (last 3' nucleoside missing)” as the substance, how does the 3 h FOB score read?
A: 0 score 0-7

Q: Which 3 h FOB score does the source give for “RNA1{[moe]([m5C])[sp].[moe](T)p.[moe](G)p.[moe]([m5C])p.[moe](A)p.[moe](T)p.d(G)[sp].d(T)[sp].d(A)[sp].d(A)[sp].d([m5C])[sp].d([m5C])[sp].d(T)[sp].d(T)[sp].d(T)[sp].d(A)[sp].[moe](T)p.[moe](A)[sp].[moe]([m5C])}$$$$ (last 3' nucleoside missing)” here?
A: 0 score 0-7

Q: Which 3 h FOB score does the source give for “RNA1{[moe]([m5C])[sp].[moe](T)p.[moe](G)p.[moe]([m5C])p.[moe](A)p.d(T)[sp].d(G)[sp].d(T)[sp].d(A)[sp].d(A)[sp].d([m5C])[sp].d([m5C])[sp].d(T)[sp].d(T)[sp].d(T)[sp].[moe](A)p.[moe](T)p.[moe](A)[sp].[moe]([m5C])}$$$$ (last 3' nucleoside missing)” here?
A: 0 score 0-7

Q: For “RNA1{[moe]([m5C])[sp].[moe](T)p.[moe](G)p.[moe]([m5C])p.d(A)[sp].d(T)[sp].d(G)[sp].d(T)[sp].d(A)[sp].d(A)[sp].d([m5C])[sp].d([m5C])[sp].d(T)[sp].d(T)[sp].[moe](T)p.[moe](A)p.[moe](T)p.[moe](A)[sp].[moe]([m5C])}$$$$ (last 3' nucleoside missing)”, which 3 h FOB score is on record?
A: 0 score 0-7

Q: For “RNA1{[moe]([m5C])[sp].[moe](T)p.[moe]([m5C])p.[moe](T)p.[moe](T)p.[moe](T)p.d([m5C])[sp].d(T)[sp].d(T)[sp].d(A)[sp].d(T)[sp].d(T)[sp].d(T)[sp].d([m5C])[sp].d(T)[sp].d(G)[sp].[moe](T)p.[moe](T)[sp].[moe](T)}$$$$ (last 3' nucleoside missing)”, which 3 h FOB score is on record?
A: 1 score 0-7

Q: Which 3 h FOB score does the source give for “RNA1{[moe]([m5C])[sp].[moe](T)p.[moe]([m5C])p.[moe](T)p.[moe](T)p.d(T)[sp].d([m5C])[sp].d(T)[sp].d(T)[sp].d(A)[sp].d(T)[sp].d(T)[sp].d(T)[sp].d([m5C])[sp].d(T)[sp].[moe](G)p.[moe](T)p.[moe](T)[sp].[moe](T)}$$$$ (last 3' nucleoside missing)” here?
A: 0 score 0-7

Q: Which 3 h FOB score does the source give for “RNA1{[moe]([m5C])[sp].[moe](T)p.[moe]([m5C])p.[moe](T)p.d(T)[sp].d(T)[sp].d([m5C])[sp].d(T)[sp].d(T)[sp].d(A)[sp].d(T)[sp].d(T)[sp].d(T)[sp].d([m5C])[sp].[moe](T)p.[moe](G)p.[moe](T)p.[moe](T)[sp].[moe](T)}$$$$ (last 3' nucleoside missing)” here?
A: 0 score 0-7

Q: With “RNA1{[moe]([m5C])[sp].[moe]([m5C])p.[moe](A)p.[moe](G)p.[moe](T)p.d(T)[sp].d(T)[sp].d(T)[sp].d(T)[sp].d(T)[sp].d([m5C])[sp].d(A)[sp].d(T)[sp].d(T)[sp].d(G)[sp].[moe]([m5C])p.[moe](A)p.[moe](T)[sp].[moe]([m5C])}$$$$ (last 3' nucleoside missing)” as the substance, how does the 3 h FOB score read?
A: 1.33 score 0-7

Q: “RNA1{[moe]([m5C])[sp].[moe]([m5C])p.[moe](A)p.[moe](G)p.d(T)[sp].d(T)[sp].d(T)[sp].d(T)[sp].d(T)[sp].d(T)[sp].d([m5C])[sp].d(A)[sp].d(T)[sp].d(T)[sp].[moe](G)p.[moe]([m5C])p.[moe](A)p.[moe](T)[sp].[moe]([m5C])}$$$$ (last 3' nucleoside missing)” was tested. Which 3 h FOB score did it give?
A: 0 score 0-7
